Source: patent publication US7629453B2, “NF-κB activating gene” (Asahi Kasei Pharma Corporation, priority 2000, dated 2009)
Strand notation (5' to 3'): a small letter for the sugar, then the base; units joined by * are phosphorothioate-linked, units joined directly phosphodiester-linked; [ ] holds rarer units or linkages, { } end groups; capitals alone tell only the bases. Where a SMILES comes first, the peptide text is derived from it. The star is where a group is joined. Cbz = O=C(OCc1ccccc1)*; d = 2'-deoxy (DNA); r = 2'-OH (RNA)

How the values were obtained:
Format in all cases: cell-based
gene of SEQ ID NO:88 [1] = test: Expression inhibition of the gene of SEQ ID NO:88 by double stranded nucleic acid (NF-κB luciferase reporter, EBNA cells); details: for relative luciferase activity (%): 10 pmol per well, 24 hours, firefly standardized with Renilla, control without double stranded nucleic acid = 100%; for luciferase activity / expression of the protein of SEQ ID NO: 87 (in words): EBNA cells, Lipofectamine 2000, versus cells without double stranded nucleic acid
Protocol: That is, using Lipofectamine 2000 (Invitrogen), an expression vector having the polynucleotide of SEQ ID NO:88, pNFkB-Luc, phRL-TK vector and double stranded nucleic acid (A) were co-transfected into EBNA cells, and after culturing, luciferase activity was measured.
EBNA cells (Invitrogen) were inoculated on DMEM medium containing 5% FBS in a 96-well cell culture plate to a cell density of 1.2×10^4 cells/100 μl/well, and cultured for 24 hours at 37° C. in the presence of 5% CO2. Next, using Lipofectamine 2000 (Invitrogen), 50 ng of an expression vector having the polynucleotide of SEQ ID NO:88 and 50 ng of pNFkB-Luc (STRATAGENE) and 10 ng of phRL-TK vector (Promega Corporation) used as an internal standard, were co-transfected with double stranded nucleic acid 88-1 (10 pmol) prepared in (1) above into 1 well. After culturing for 24 hours at 37° C., firefly luciferase activity and Renilla reniformis luciferase activity were measured using a Dual-Luciferase Reporter Assay System (Promega Corporation). Further, each of 88-2 (10 pmol), 88-3 (10 pmol), 88-4 (10 pmol), 88-5 (10 pmol) or 88-6 (10 pmol) was co-transfected into 1 well in place of 88-1 (10 pmol), and luciferase activity was measured in the same manner. In Table 1, values for activity represent relative values when firefly luciferase activity in the control experiment (cells into which double stranded nucleic acid has not been introduced) is established as 100%. (It should be noted that values for firefly luciferase activity were standardized with values for Renilla reniformis luciferase activity used as an internal standard, before using these values in calculations.)

gene of SEQ ID NO:88 [2] = test: as above; details: Lipofectamine 2000, versus cells without double stranded nucleic acid
NF-κB activation = test: NF-κB reporter activity inhibition by proteasome inhibitor in 293-EBNA cells cotransfected with NF-κB activating protein expression vector and pNFκB-Luc; details: MG-132 0.1, 0.5, 1.0 and 10 μM added 1 hour after transfection; 293-EBNA cells with vector for protein of SEQ ID NO: 5, 9, 17 ... 178; 24 hours
Protocol: 293-EBNA cells were seeded on 5% FBS containing DMEM medium in a 96-well cell culture plate to a final cell density of 1×10^4 cells/100 μl/well, and cultured for 24 hours at 37° C. in the presence of 5% CO2. Then, 50 ng of the expression vector comprising the gene encoding NF-κB activating protein of SEQ ID NO: 5, 9, 17, 21, 35, 37, 41, 53, 57, 63, 67, 71, 75, 81, 87, 91, 93, 97, 121, 123, 129, 154, 158, 162, 168, 170, 172, 176 or 178, and 50 ng of the reporter plasmid pNF κB-Luc were cotransfected into the cells in a well using FuGENE 6. After 1 hour, the proteasome inhibitor MG-132 (purchased form CALBIOCHEM) (Uehara T. et al., J. Biol. Chem. 274, p. 15875-15882 (1999); Wang X. C. et al., Invest. Ophathalmol. Vis. Sci. 40, p. 477-486) was added to the culture to final concentrations of 0.1 μM, 0.5 μM, 1.0 μM and 10 μM, respectively. After 24 hours of culture at 37° C., the reporter activity was measured using PIKKA GENE LT2.0.

Row | Compound | relative luciferase activity (%) (gene of SEQ ID NO:88 [1]) | luciferase activity / expression of the protein of SEQ ID NO: 87 (in words) (gene of SEQ ID NO:88 [1]) | other results
1 | 88-4: double stranded nucleic acid annealed from oligonucleotides A4 (SEQ ID NO: 191) and B4 (SEQ ID NO: 192) (chain 1 rGrArUrGrArCrArCrArGrArUrGrArArGrCrCrCdTdT; chain 2 rGrGrGrCrUrUrCrArUrCrUrGrUrGrUrCrArUrCdTdT; siRNA) | 8 | exhibited inhibition of firefly luciferase activity | luciferase activity / expression of the protein of SEQ ID NO: 87 (in words) (gene of SEQ ID NO:88 [2]; listed as (D)): similarly inhibited
2 | CC(C)C[C@@H](C=O)NC(=O)[C@H](CC(C)C)NC(=O)[C@H](CC(C)C)NC(=O)OCc1ccccc1 [MG132, MG-132] (Cbz-Leu-Leu-Leu-aldehyde) | – | – | expression of the reporter gene (NF-κB reporter activity) (NF-κB activation): inhibited the expression of the reporter gene
3 | 88-5: double stranded nucleic acid annealed from oligonucleotides A5 (SEQ ID NO: 193) and B5 (SEQ ID NO: 194) (chain 1 GCCCUCAGAGUCCAGAAUCTT; chain 2 GAUUCUGGACUCUGAGGGCTT; siRNA; sugars from the 5' end r19 d2, backbone not given here) | 5 | exhibited inhibition of firefly luciferase activity | luciferase activity / expression of the protein of SEQ ID NO: 87 (in words) (gene of SEQ ID NO:88 [2]): similarly inhibited
4 | 88-6: double stranded nucleic acid annealed from oligonucleotides A6 (SEQ ID NO: 195) and B6 (SEQ ID NO: 196) (chain 1 GAUGACUUUGGUAUCAAACTT; chain 2 GUUUGAUACCAAAGUCAUCTT; siRNA; sugars from the 5' end r19 d2, backbone not given here) | 7 | exhibited inhibition of firefly luciferase activity | luciferase activity / expression of the protein of SEQ ID NO: 87 (in words) (gene of SEQ ID NO:88 [2]; listed as (F)): similarly inhibited
5 | 88-3: double stranded nucleic acid annealed from oligonucleotides A3 (SEQ ID NO: 189) and B3 (SEQ ID NO: 190) (chain 1 rGrCrUrGrArArGrArArGrArGrGrUrGrUrUrCrCdTdT; chain 2 rGrGrArArCrArCrCrUrCrUrUrCrUrUrCrArGrCdTdT; siRNA) | 9 | exhibited inhibition of firefly luciferase activity | luciferase activity / expression of the protein of SEQ ID NO: 87 (in words) (gene of SEQ ID NO:88 [2]; listed as (C)): similarly inhibited
6 | 88-1: double stranded nucleic acid annealed from oligonucleotides A1 (SEQ ID NO: 185) and B1 (SEQ ID NO: 186), targeting SEQ ID NO: 88 (chain 1 rGrUrCrCrArGrGrArUrArUrCrArUrGrArGrUrCdTdT; chain 2 rGrArCrUrCrArUrGrArUrArUrCrCrUrGrGrArCdTdT; siRNA) | 18 | exhibited inhibition of firefly luciferase activity | luciferase activity / expression of the protein of SEQ ID NO: 87 (in words) (gene of SEQ ID NO:88 [2]): markedly lower
7 | 88-2: double stranded nucleic acid annealed from oligonucleotides A2 (SEQ ID NO: 187) and B2 (SEQ ID NO: 188) (chain 1 rGrArArGrUrCrUrGrArArGrArUrCrUrArUrCrCdTdT; chain 2 rGrGrArUrArGrArUrCrUrUrCrArGrArCrUrUrCdTdT; siRNA) | 12 | exhibited inhibition of firefly luciferase activity | luciferase activity / expression of the protein of SEQ ID NO: 87 (in words) (gene of SEQ ID NO:88 [2]; listed as (B)): similarly inhibited
